Consider 18 compounds from patent publication US11358957B2, “Microbiocidal oxadiazole derivatives” (SYNGENTA PARTICIPATIONS AG, priority 2017, dated 2022).

The subject of experiment [1] is Puccinia recondita f. Sp. Tritici. Kind of experiment: Fungicidal activity against Puccinia recondita f. sp. tritici / wheat / leaf disc preventative (brown rust). It counts as in vivo. The conditions noted are these: foliar, 200 ppm in the applied formulation, wheat leaf segments cv. Kanzler, preventative (inoculated 1 day after application), compared to untreated, read-out: disease control. The protocol:
Leaf disks or leaf segments of various plant species are cut from plants grown in a greenhouse. The cut leaf disks or segments are placed in multiwell plates (24-well format) onto water agar. The leaf disks are sprayed with a test solution before (preventative) or after (curative) inoculation. Compounds to be tested are prepared as DMSO solutions (max. 10 mg/mL) which are diluted to the appropriate concentration with 0.025% Tween20 just before spraying. The inoculated leaf disks or segments are incubated under defined conditions (temperature, relative humidity, light, etc.) according to the respective test system. A single evaluation of disease level is carried out 3 to 14 days after inoculation, depending on the pathosystem. Percent disease control relative to the untreated check leaf disks or segments is then calculated. Wheat leaf segments cv. Kanzler were placed on agar in multiwell plates (24-well format) and sprayed with the formulated test compound diluted in water. The leaf disks were inoculated with a spore suspension of the fungus 1 day after application. The inoculated leaf segments were incubated at 19° C. and 75% relative humidity (rh) under a light regime of 12 hours light/12 hours darkness in a climate cabinet and the activity of a compound was assessed as percent disease control compared to untreated when an appropriate level of disease damage appears in untreated check leaf segments (7 to 9 days after application). The following compounds at 200 ppm in the applied formulation give at least 80% disease control in this test when compared to untreated control leaf disks under the same conditions, which show extensive disease development.

Experiment [2] relates to Glomerella lagenarium (Colletotrichum lagenarium). Kind of experiment: Fungicidal activity against Glomerella lagenarium (Colletotrichum lagenarium) liquid culture / cucumber / preventative (anthracnose). It counts as cell-based. The conditions noted are these: Colletotrichum orbiculare; 20 ppm in the applied formulation; liquid culture (PDB), inhibition of growth measured photometrically 3 to 4 days after application; compared to untreated; read-out: disease control. The method, then: Mycelia fragments or conidia suspensions of a fungus prepared either freshly from liquid cultures of the fungus or from cryogenic storage, are directly mixed into nutrient broth. DMSO solutions of the test compound (max. 10 mg/mL) are diluted with 0.025% Tween20 by a factor of 50 and 10 μL of this solution is pipetted into a microtiter plate (96-well format). The nutrient broth containing the fungal spores/mycelia fragments is then added to give an end concentration of the tested compound. The test plates are incubated in the dark at 24° C. and 96% relative humidity. The inhibition of fungal growth is determined photometrically after 2 to 7 days, depending on the pathosystem, and percent antifungal activity relative to the untreated check is calculated. Conidia of the fungus from cryogenic storage are directly mixed into nutrient broth (PDB—potato dextrose broth). After placing a (DMSO) solution of test compound into a microtiter plate (96-well format), the nutrient broth containing the fungal spores is added. The test plates are incubated at 24° C. and the inhibition of growth is measured photometrically 3 to 4 days after application. The following compounds at 20 ppm in the applied formulation give at least 80% disease control in this test when compared to untreated control under the same conditions, which show extensive disease development.

Experiment [3] has as its system Puccinia recondita f. Sp. Tritici. Kind of experiment: Fungicidal activity against Puccinia recondita f. sp. tritici / wheat / leaf disc curative (brown rust). The experiment is classed as in vivo. The conditions noted are these: foliar, 24 h, 200 ppm in the applied formulation, wheat leaf segments cv. Kanzler, curative (applied 1 day after inoculation), compared to untreated, read-out: disease control. The protocol: Leaf disks or leaf segments of various plant species are cut from plants grown in a greenhouse. The cut leaf disks or segments are placed in multiwell plates (24-well format) onto water agar. The leaf disks are sprayed with a test solution before (preventative) or after (curative) inoculation. Compounds to be tested are prepared as DMSO solutions (max. 10 mg/mL) which are diluted to the appropriate concentration with 0.025% Tween20 just before spraying. The inoculated leaf disks or segments are incubated under defined conditions (temperature, relative humidity, light, etc.) according to the respective test system. A single evaluation of disease level is carried out 3 to 14 days after inoculation, depending on the pathosystem. Percent disease control relative to the untreated check leaf disks or segments is then calculated. Wheat leaf segments cv. Kanzler are placed on agar in multiwell plates (24-well format). The leaf segments are then inoculated with a spore suspension of the fungus. Plates were stored in darkness at 19C and 75% relative humidity. The formulated test compound diluted in water was applied 1 day after inoculation. The leaf segments were incubated at 19° C. and 75% relative humidity under a light regime of 12 hours light/12 hours darkness in a climate cabinet and the activity of a compound was assessed as percent disease control compared to untreated when an appropriate level of disease damage appears in untreated check leaf segments (6 to 8 days after application). The following compounds at 200 ppm in the applied formulation give at least 80% disease control in this test when compared to untreated control leaf disks under the same conditions, which show extensive disease development.

A value given as a limit tells only on which side of the number the result lay.

`O=C(NC1CCC1)c1ncn(Cc2ccc(-c3noc(C(F)(F)F)n3)s2)n1` [Compound 1.91, N-cyclobutyl-1-[[5-[5-(trifluoromethyl)-1,2,4-oxadiazol-3-yl]-2-thienyl]methyl]-1,2,4-triazole-3-carboxamide]: the pest or weed control at 200 ppm in experiment [1] and in experiment [3] was not below 80% throughout. In addition, the inhibition of growth at 20 ppm in experiment [2] is not below 80%.

For `CCCNC(=O)c1ccn(Cc2ccc(-c3noc(C(F)(F)F)n3)s2)n1` [Compound 1.137, N-propyl-1-[[5-[5-(trifluoromethyl)-1,2,4-oxadiazol-3-yl]-2-thienyl]methyl]pyrazole-3-carboxamide], the pest or weed control at 200 ppm in experiment [1] and in experiment [3] was not below 80% each time. Also, the inhibition of growth at 20 ppm in experiment [2] is not below 80%.

In the case of `O=C(NC1CC1)c1nccn1Cc1ccc(-c2noc(C(F)(F)F)n2)s1` [Compound 1.177, N-cyclopropyl-1-[[5-[5-(trifluoromethyl)-1,2,4-oxadiazol-3-yl]-2-thienyl]methyl]imidazole-2-carboxamide], the pest or weed control at 200 ppm in experiment [1] and in experiment [3] was not below 80% throughout.

Turning to `CC(c1ccc(-c2noc(C(F)(F)F)n2)s1)n1cc(C(=O)NCC(C)(C)C)cn1` (centres unmarked) [Compound 1.66, N-(2,2-dimethylpropyl)-1-[1-[5-[5-(trifluoromethyl)-1,2,4-oxadiazol-3-yl]-2-thienyl]ethyl]pyrazole-4-carboxamide], the pest or weed control at 200 ppm in experiment [1] and in experiment [3] was not below 80% each time. For the same compound, in experiment [2], the inhibition of growth at 20 ppm was not below 80%.

Consider `O=C(Nc1ccccc1)c1ccn(Cc2ccc(-c3noc(C(F)(F)F)n3)s2)n1` [Compound 1.130, N-phenyl-1-[[5-[5-(trifluoromethyl)-1,2,4-oxadiazol-3-yl]-2-thienyl]methyl]pyrazole-3-carboxamide], for which the pest or weed control at 200 ppm in experiment [1] and in experiment [3] was not below 80% each time. Further, in experiment [2], the inhibition of growth at 20 ppm was not below 80%.

On to `CCN(C)C(=O)c1ccnn1Cc1ccc(-c2noc(C(F)(F)F)n2)s1` [Compound 1.169, N-ethyl-N-methyl-2-[[5-[5-(trifluoromethyl)-1,2,4-oxadiazol-3-yl]-2-thienyl]methyl]pyrazole-3-carboxamide], for which the pest or weed control at 200 ppm in experiment [1] and in experiment [3] was not below 80% in each case. In addition, the inhibition of growth at 20 ppm in experiment [2] is not below 80%.

Take `CCC(C)NC(=O)c1ncn(Cc2ccc(-c3noc(C(F)(F)F)n3)s2)n1` (centres unmarked) [Compound 1.144, N-sec-butyl-1-[[5-[5-(trifluoromethyl)-1,2,4-oxadiazol-3-yl]-2-thienyl]methyl]-1,2,4-triazole-3-carboxamide]: the pest or weed control at 200 ppm in experiment [1] and in experiment [3] was not below 80% each time. Further, in experiment [2], the inhibition of growth at 20 ppm is not below 80%.

With `C=CCNC(=O)c1ccn(Cc2ccc(-c3noc(C(F)(F)F)n3)s2)n1` [Compound 1.122, N-allyl-1-[[5-[5-(trifluoromethyl)-1,2,4-oxadiazol-3-yl]-2-thienyl]methyl]pyrazole-3-carboxamide], the pest or weed control at 200 ppm in experiment [1] and in experiment [3] was not below 80% in each case. The inhibition of growth at 20 ppm in experiment [2] is not below 80%.

For `CCNC(=O)c1ccn(Cc2ccc(-c3noc(C(F)(F)F)n3)s2)n1` [Compound 1.120, N-ethyl-1-[[5-[5-(trifluoromethyl)-1,2,4-oxadiazol-3-yl]-2-thienyl]methyl]pyrazole-3-carboxamide], the pest or weed control at 200 ppm in experiment [1] and in experiment [3] was not below 80% each time. Also, the inhibition of growth at 20 ppm in experiment [2] is not below 80%.

`C#CCNC(=O)c1ncn(Cc2ccc(-c3noc(C(F)(F)F)n3)s2)n1` [Compound 1.98, N-prop-2-ynyl-1-[[5-[5-(trifluoromethyl)-1,2,4-oxadiazol-3-yl]-2-thienyl]methyl]-1,2,4-triazole-3-carboxamide]: the pest or weed control at 200 ppm in experiment [1] and in experiment [3] was not below 80% in each case. Further, the inhibition of growth at 20 ppm in experiment [2] is not below 80%.

With `CC(c1ccc(-c2noc(C(F)(F)F)n2)s1)n1cc(C(=O)NC2CCC2)cn1` (centres unmarked) [Compound 1.79, N-cyclobutyl-1-[1-[5-[5-(trifluoromethyl)-1,2,4-oxadiazol-3-yl]-2-thienyl]ethyl]pyrazole-4-carboxamide], the pest or weed control at 200 ppm in experiment [1] and in experiment [3] was not below 80% in each case. For the same compound, the inhibition of growth at 20 ppm in experiment [2] was not below 80%.

`CC(C)(C)CNC(=O)c1cnn(Cc2ccc(-c3noc(C(F)(F)F)n3)s2)c1` [Compound 1.101, N-(2,2-dimethylpropyl)-1-[[5-[5-(trifluoromethyl)-1,2,4-oxadiazol-3-yl]-2-thienyl]methyl]pyrazole-4-carboxamide]: the pest or weed control at 200 ppm in experiment [1] and in experiment [3] was not below 80% throughout. Also, in experiment [2], the inhibition of growth at 20 ppm is not below 80%.

For the compound `CCN(C)C(=O)c1cnn(C(C)c2ccc(-c3noc(C(F)(F)F)n3)s2)c1` (centres unmarked) [Compound 1.88, N-ethyl-N-methyl-1-[1-[5-[5-(trifluoromethyl)-1,2,4-oxadiazol-3-yl]-2-thienyl]ethyl]pyrazole-4-carboxamide], the pest or weed control at 200 ppm in experiment [1] and in experiment [3] was not below 80% throughout. For the same compound, the inhibition of growth at 20 ppm in experiment [2] is not below 80%.

For the compound `O=C(NC1CCCCC1)c1cnn(Cc2ccc(-c3noc(C(F)(F)F)n3)s2)c1` [Compound 1.105, N-cyclohexyl-1-[[5-[5-(trifluoromethyl)-1,2,4-oxadiazol-3-yl]-2-thienyl]methyl]pyrazole-4-carboxamide], the pest or weed control at 200 ppm in experiment [1] and in experiment [3] was not below 80% each time. For the same compound, the inhibition of growth at 20 ppm in experiment [2] was not below 80%.

On to `CCN(CC)C(=O)c1cnn(Cc2ccc(-c3noc(C(F)(F)F)n3)s2)c1` [Compound 1.113, N,N-diethyl-1-[[5-[5-(trifluoromethyl)-1,2,4-oxadiazol-3-yl]-2-thienyl]methyl]pyrazole-4-carboxamide], for which the pest or weed control at 200 ppm in experiment [1] and in experiment [3] was not below 80% each time.

For `CON(C)C(=O)c1cnn(C(C)c2ccc(-c3noc(C(F)(F)F)n3)s2)c1` (centres unmarked) [Compound 1.68, N-methoxy-N-methyl-1-[1-[5-[5-(trifluoromethyl)-1,2,4-oxadiazol-3-yl]-2-thienyl]ethyl]pyrazole-4-carboxamide], the pest or weed control at 200 ppm in experiment [1] and in experiment [3] was not below 80% each time. The inhibition of growth at 20 ppm in experiment [2] is not below 80%.

`CC(c1ccc(-c2noc(C(F)(F)F)n2)s1)n1cc(C(=O)NC2CCCC2)cn1` (centres unmarked) [Compound 1.83, N-cyclopentyl-1-[1-[5-[5-(trifluoromethyl)-1,2,4-oxadiazol-3-yl]-2-thienyl]ethyl]pyrazole-4-carboxamide]: the pest or weed control at 200 ppm in experiment [1] and in experiment [3] was not below 80% in each case.

As to `CNC(=O)c1nccn1Cc1ccc(-c2noc(C(F)(F)F)n2)s1` [Compound 1.176, N-methyl-1-[[5-[5-(trifluoromethyl)-1,2,4-oxadiazol-3-yl]-2-thienyl]methyl]imidazole-2-carboxamide], the pest or weed control at 200 ppm in experiment [1] and in experiment [3] was not below 80% in each case.
